The results in this text go back to patent publication EP0347802B1, “Neurokinin A antagonists” (MERRELL DOW PHARMACEUTICALS INC., priority 1988, dated 1989).

The structures appear in SMILES notation. Residues, ends and D or L forms follow the SMILES beside them.

Experiment [1] addresses T1, NKA receptor (Mesocricetus auratus, UniProt P51144).
T1 construct: from tissue; host or cells: hamster urinary bladder, chopped tissue
T1 sequence (P51144 1-384): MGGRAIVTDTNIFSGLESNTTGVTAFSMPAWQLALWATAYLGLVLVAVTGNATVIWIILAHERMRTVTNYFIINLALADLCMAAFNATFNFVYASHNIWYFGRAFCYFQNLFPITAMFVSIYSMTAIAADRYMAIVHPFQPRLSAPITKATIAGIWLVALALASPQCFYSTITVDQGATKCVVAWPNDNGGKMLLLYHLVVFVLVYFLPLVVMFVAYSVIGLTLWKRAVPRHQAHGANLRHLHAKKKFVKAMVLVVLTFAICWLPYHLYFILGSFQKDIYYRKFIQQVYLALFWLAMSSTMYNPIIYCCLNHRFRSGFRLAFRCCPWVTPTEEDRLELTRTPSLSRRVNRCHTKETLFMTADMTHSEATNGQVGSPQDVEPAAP
The experiment can be described thus: Neurokinin A-induced phosphatidylinositol (PI) turnover in hamster urinary bladder. The format is cell-based. Conditions: for shift of NKA dose-response curve (PI turnover): one experiment in triplicate; for partial agonist activity: test compound alone. From the text:
The abscissa (x-axis) logarithmically indicates the concentration in nanomoles of agonist or antagonist of the neurokinin A (NKA) receptor. […] The abscissa (x-axis) logarithmically indicates the concentration in nanomolar (nM) of agonist or antagonist of the NKA receptor. […] The abscissa (x-axis) logarithmically indicates the concentration in nanomolar (nM) of agonist or antagonist of the NKA receptor. […])]Leu-NH2 up to 100»M had only 5% partial agonist activity, and […] had only 12% partial agonist activity. […] Values are MEAN ± S.E.M. from one experiment in triplicate. Urinary bladders from several hamsters were pooled and chopped at 350 »m with a tissue chopper. The chopped tissue was then incubated in 37°C Krebs-Hepes buffer with fresh buffer changes every 15 minutes for 30 minutes. The tissue was then incubated in this buffer containing 100-200 »Ci of 3H-inositol at 37°C. The tissue was then washed and incubated for another 30 minutes in Krebs-Hepes (containing 10 mM Li+) at 37°C with fresh buffer change every 15 minutes. Portions of the tissue mass (approximately 10-20 mg per assay tube) were then placed in Li+ buffer, test compound was then added in 25 »l, and then various concentrations of neurokinin A were added in 25 »l in a final volume of 250 »l. […] Test compound was also evaluated alone at the indicated concentrations to test for agonist activity. After 30 minutes at room temperature, the phosphatidylinositol turnover was terminated by the addition of 940 »l chloroform:methanol (1:2), followed by 310 »l chloroform, followed by 310 »l water. Each tube was then vortexed for 15 seconds and then centrifuged at 3000 rpm for 10 minutes to separate the phases. 900 »l of the top (aqueous) phase was then loaded onto a 0.5 ml Biorad AG-1X8 (formate) ion exchange column. 50 »l of the bottom phase (chloroform) was withdrawn from each tube and placed in a counting vial, dried, and counted in scintillation fluid. The material on the columns was washed in order with: • 1) 10 ml of water • 2) 5 ml of 5 mM disodium tetraborate/60 mM sodium formate • 3) 10 ml of 1 M ammonium formate in 0.1 M formic acid The final (third) wash was collected and one ml was mixed with 6 ml of ACS scintillant and counted. The ratio of these counts (total inositol phosphates) to the corresponding organic phase counts was then calculated for each sample. The ratios in the presence of test compound and/or standards were then compared to the ratios for control tubes (i.e., no stimulating agonist). Dose-response curves were constructed and the abilities of test compounds to stimulate or to inhibit neurokinin A-induced phosphatidylinositol turnover were determined by graphical analysis or with the aid of a computer program and are illustrated in Figures 2 and 3.

Experiment [2] has as its system hamster urinary bladder. The experiment can be described thus: Hamster urinary bladder contraction preparation. Conditions: for effect on NKA-mediated contractile activity: NKA with 10 »M of test compound, one experiment in triplicate; for contraction produced by test compound alone: up to concentrations of 1 »M, three separate hamster bladder tissues each, thiorphan 10 »M. Further details: species or system male golden Syrian hamsters. From the text: The abscissa (x-axis) logarithmically indicates the concentration in nanomoles of agonist or antagonist of the neurokinin A (NKA) receptor. The ordinate (y-axis) indicates the observed specific binding for each tested agonist or antagonist measured as a percentage of maximum specific binding. [formula] Agonists tested were NKA and fragments of NKA consisting of the third to tenth (NKA(3-10)) amino acids and the fourth to tenth (NKA(4-10)) amino acids. Values are MEAN ± S.E.M. of 6 - 12 experiments. […] The abscissa (x-axis) logarithmically indicates the concentration in nanomolar (nM) of agonist or antagonist of the NKA receptor. […] The abscissa (x-axis) logarithmically indicates the concentration in nanomolar (nM) of agonist or antagonist of the NKA receptor. […] H-Asp-Ser-Phe-Val-Gly-Leuψ[CH₂N(CH₃)]Leu-NH₂ up to 100»M had only 5% partial agonist activity, and H-Asp-Ser-Phe-Val-Gly-Leuψ[CH₂NH]Leu-NH₂ had only 12% partial agonist activity. […] The abscissa (x-axis) logarithmically indicates the concentration in nanomolar (nM) of NKA or NKA with 10 »M of H-Asp-Ser-Phe-Val-Gly-Leuψ[CH₂NH]Leu-NH₂. […] The abscissa (x-axis) logarithmically indicates the concentration in nanomolar (nM) of NKA or NKA with 10 »M of H-Asp-Ser-Phe-Val-Gly-Leuψ[CH₂N(CH₃)]Leu-NH₂. Values are MEAN ± S.E.M. from one experiment in triplicate.
Half-strips of urinary bladders from male golden Syrian hamsters (75 - 100 g) were suspended in Tyrode's buffer at 31°C and with 1 gram resting tension as described by Dion et al. (Life Sciences 41: 2269 - 2278, 1987). The enkephalinase inhibitor thiorphan was added to the buffer at 10 »M 15 minutes prior to each test compound addition. Cumulative NKA dose-response curves were constructed first in the absence and then in the presence of test compound. The test compounds were added cumulatively as well to ascertain whether or not they had any contractile effects themselves. Any test compound effect that was observed was allowed to plateau before the next cumulative concentration was added. Under these conditions, the EC₅₀ for NKA contractile effects was generally 10 nM, in good agreement with literature values. Contractile data are expressed as grams of tension developed over and above the resting tension. […] Figures 4 and 5 illustrate the contractile force as a function of NKA concentration in the absence and presence of test compound.

As for `CC(C)C[C@@H](CN(C)[C@@H](CC(C)C)C(N)=O)NC(=O)CNC(=O)[C@@H](NC(=O)[C@H](Cc1ccccc1)NC(=O)[C@H](CO)NC(=O)[C@@H](N)CC(=O)O)C(C)C` [H-Asp-Ser-Phe-Val-Gly-Leuψ[CH₂N(CH₃)]Leu-NH₂] (HELM PEPTIDE1{D.S.F.V.G.[CC(C)C[C@@H](CN(C)[C@@H](CC(C)C)C(N)=O)N[*:1]]}$$$$V2.0), in experiment [1] (1, 10 and 100 »M test compound), the “shift of NKA dose-response curve (PI turnover)” value is “significant rightward shift of NKA dose-response curve in competitive manner”. Further, the Kb in experiment [1] (Schild plot of NKA dose-response shifts at 1, 10 and 100 »M, read-out: pA2 (converted)) is 21.9 nM. The “slope of the Schild plot” value in experiment [1] (from NKA dose-response shifts at 1, 10 and 100 »M) is given as “-.99”. In experiment [1] (up to 100»M), this compound displayed a partial agonist activity of 5%. Moreover, in experiment [2], the “effect on NKA-mediated contractile activity” value is listed as “antagonistic effect” and the “contraction produced by test compound alone” value is “did not produce any contraction”.

For `CC(C)C[C@@H](CN[C@@H](CC(C)C)C(N)=O)NC(=O)CNC(=O)[C@@H](NC(=O)[C@H](Cc1ccccc1)NC(=O)[C@H](CO)NC(=O)[C@@H](N)CC(=O)O)C(C)C` [H-Asp-Ser-Phe-Val-Gly-Leuψ[CH₂NH]Leu-NH₂] (HELM PEPTIDE1{D.S.F.V.G.[CC(C)C[C@@H](CN[C@@H](CC(C)C)C(N)=O)N[*:1]]}$$$$V2.0), the “shift of NKA dose-response curve (PI turnover)” value in experiment [1] (10 »M test compound) is reported as “significant rightward shift of NKA dose-response curve in competitive manner”. The partial agonist activity in experiment [1] was 12%. Moreover, in experiment [2], the “effect on NKA-mediated contractile activity” value is given as “antagonistic effect” and the “contraction produced by test compound alone” value is given as “did not produce any contraction”.
